Reference: US7012060B1, “TNF receptor and steroid hormone in a combined therapy” (priority 1995, dated 2006)
Marks after values point to notes of the source that are not given here.

Legend:
[1] = tested on: septic shock induced by LPS + D-Galactosamine, in mice; assay: LPS+D-Galactosamine-induced septic shock model; assay type: in vivo, SPF female BALB/c inbred mice
Procedure: The experiments were carried out in vivo on mice. The septic shock was induced by an i.p. administration of a mixture of LPS (0.1 μg/mouse) and D-Galactosamine (18 mg/mouse).
The treatment schedule for r-hTBP-1 based on repeated administrations (the total dose was divided into 4 administrations given at time 0 and […] and 24 hours after), was adopted. CHO r-hTBP-1 was tested, alone or in combination with DHEA, at dose levels of 62.5 and 125 μg/mouse (total dose).
DHEA was tested both in a single administration injected i.p. one hour before and contemporaneously to the septic shock-inducing agent at doses encompassed between 100 and 2.000 μg/mouse and in repeated treatment with the total dose (250 μg/mouse) divided into 4 injections given within 24 hours.
The above treatment schedules of DHEA (doses from 250 to 1,500 μl g/mouse) were followed also in combination with r-hTBP-1 which was tested at the total dose varying from 62.5 to 125 μg/mouse (divided into 4 administrations).
SPF female BALB/c inbred mice, 6–8 weeks (about 18–20 g b.w.), from Charles River were used throughout the whole study after an acclimatisation period of at least 7 days.
Unless otherwise specified, in all the experiments the mice were randomly divided into groups of 10 animals each.
Both substances were dissolved in saline. The mixture of LPS (0.1 μg/mouse) and D-Galactosamine (18 mg/mouse) was prepared by mixing equal volumes of these substances. The mixture was subsequently injected to animals by the i.p. route. This dose was selected under precious experiments as that inducing around 80% mortality calculated as the number of dead vs. total number of mice for each croup. The lethality was monitored after 24, 48, 72 and 96 hours and at day 7 post-treatment.
The drug was diluted in saline and injected by repeated administrations, i.e. i.v. immediately before the inoculum of LPS plus D-Galactosamine and s.c. 3, 6 and 24 hours later.
The effects of DHEA, alone or in combination with r-hTBP-1, were assayed after single i.p. administrations at different times in respect to LPS+D-Galactosamine injection; in particular, it was administered 1 hour before and contemporaneously to the septic shock-inducing agent.
A repeated treatment schedule was also investigated in which DHEA was administered at time 0 (septic shock induction) and 3, 6 and 24 hours later. DHEA was initially vehicled in a mixture of 2.5% alcohol and 10% rabbit serum in saline. To improve the solubility and standardise the preparation, the steroid was successively dispersed in a mixture of 2.5% alcohol and 10% phospholipid emulsion in saline.
The primary end point was the survival rate at 48 hours after induction of septic shock. The comparison of the effects of each treatment group vs. controls and among treatment groups was effected by Fisher's exact test, one-tailed. The same comparison was also performed at the other time points. The results in each treatment group were expressed as percent survival.
In all the experiments, percent survival values were calculated using the survival Tables for the follow up studies (Armitage P. Cap. XIV. Tavole di sopravvivenza in Statistica Medica, Feltrinelli, Milano). The χ^2-test was applied to each observation time by comparing the DHEA+r-hTBP-1 groups to the other groups.

TNF-α = settings: both in vivo and in vitro; cited from earlier work
Semliki Forest virus = settings: cited from earlier work
coxsackievirus B4 = settings: cited from earlier work

C[C@]12CC[C@H](O)CC1=CC[C@@H]1[C@@H]2CC[C@]2(C)C(=O)CC[C@@H]12 [DHEA, Dehydroepiandrosterone]
% cumulative survival ([1]; DHEA 1500 μg/mouse i.p. 1 hour before LPS + D-Gal, saline 10% rabbit serum, 48 hrs, 2nd exp): 70^a % | % cumulative survival ([1]; DHEA 1500 μg/mouse i.p. 1 hour before LPS + D-Gal, saline 10% rabbit serum, 72 hrs, 2nd exp): 50% | % cumulative survival ([1]; DHEA 1500 μg/mouse i.p. 1 hour before LPS + D-Gal, saline 10% rabbit serum, 96 hrs, 2nd exp): 50% | % cumulative survival ([1]; DHEA 2000 μg/mouse i.p. 1 hour before LPS + D-Gal, saline 10% rabbit serum, 24 hrs, 1st exp): 100^a % | % cumulative survival ([1]; DHEA 2000 μg/mouse i.p. 1 hour before LPS + D-Gal, saline 10% rabbit serum, 24 hrs, 2nd exp): 100^a % | % cumulative survival ([1]; DHEA 2000 μg/mouse i.p. 1 hour before LPS + D-Gal, saline 10% rabbit serum, 48 hrs, 1st exp): 100^a % | % cumulative survival ([1]; DHEA 2000 μg/mouse i.p. 1 hour before LPS + D-Gal, saline 10% rabbit serum, 48 hrs, 2nd exp): 100^a % | % cumulative survival ([1]; DHEA 2000 μg/mouse i.p. 1 hour before LPS + D-Gal, saline 10% rabbit serum, 72 hrs, 1st exp): 100^a % | % cumulative survival ([1]; DHEA 2000 μg/mouse i.p. 1 hour before LPS + D-Gal, saline 10% rabbit serum, 72 hrs, 2nd exp): 100^a % | % cumulative survival ([1]; DHEA 2000 μg/mouse i.p. 1 hour before LPS + D-Gal, saline 10% rabbit serum, 96 hrs, 1st exp): 100^a % | % cumulative survival ([1]; DHEA 2000 μg/mouse i.p. 1 hour before LPS + D-Gal, saline 10% rabbit serum, 96 hrs, 2nd exp): 100^a % | survival ([1]; DHEA 1.000 and 1.500 μg/mouse alone): 0–40% | protective effects ([1]; DHEA at doses higher than 1.000 μg/mouse, 1 hour before LPS+D-Galactosamine): statistically significant protective effects | protective effects ([1]; DHEA up to 1.000 μg/mouse, 1 hour before LPS+D-Galactosamine): No protective effects | % cumulative survival ([1]; Table 2, DHEA 1000 μg/mouse i.p. 1 hour before LPS + D-Gal, saline 10% rabbit serum, 24 hrs): 0% | % cumulative survival ([1]; Table 2, DHEA 1000 μg/mouse i.p. 1 hour before LPS + D-Gal, saline 10% rabbit serum, 48 hrs): 0% | % cumulative survival ([1]; Table 2, DHEA 1000 μg/mouse i.p. 1 hour before LPS + D-Gal, saline 10% rabbit serum, 72 hrs): 0% | % cumulative survival ([1]; Table 2, DHEA 1000 μg/mouse i.p. 1 hour before LPS + D-Gal, saline 10% rabbit serum, 96 hrs): 0% | % cumulative survival ([1]; Table 2, DHEA 1500 μg/mouse i.p. 1 hour before LPS + D-Gal, saline 10% rabbit serum, 24 hrs): 40% | % cumulative survival ([1]; Table 2, DHEA 1500 μg/mouse i.p. 1 hour before LPS + D-Gal, saline 10% rabbit serum, 48 hrs): 40% | % cumulative survival ([1]; Table 2, DHEA 1500 μg/mouse i.p. 1 hour before LPS + D-Gal, saline 10% rabbit serum, 72 hrs): 20% | % cumulative survival ([1]; Table 2, DHEA 1500 μg/mouse i.p. 1 hour before LPS + D-Gal, saline 10% rabbit serum, 96 hrs): 20% | % cumulative survival ([1]; Table 4, DHEA 250 μg single injection at time 0 i.p., NaCl 10% PLE, 24 hr): 40% | % cumulative survival ([1]; Table 4, DHEA 250 μg single injection at time 0 i.p., NaCl 10% PLE, 48 hr): 30% | % cumulative survival ([1]; Table 4, DHEA 250 μg single injection at time 0 i.p., NaCl 10% PLE, 72 hr): 30% | % cumulative survival ([1]; Table 4, DHEA 250 μg single injection at time 0 i.p., NaCl 10% PLE, 96 hr): 30% | % cumulative survival ([1]; Table 4, DHEA 250 μg single injection at time 0 i.p., NaCl 10% RS, 24 hr): 30% | % cumulative survival ([1]; Table 4, DHEA 250 μg single injection at time 0 i.p., NaCl 10% RS, 48 hr): 30% | % cumulative survival ([1]; Table 4, DHEA 250 μg single injection at time 0 i.p., NaCl 10% RS, 72 hr): 30% | % cumulative survival ([1]; Table 4, DHEA 250 μg single injection at time 0 i.p., NaCl 10% RS, 96 hr): 30% | % cumulative survival ([1]; Table 5 group D, DHEA 250 μg single injection at time 0 i.p., NaCl 10% PLE, 24 hrs, 1st exp.): 40% | % cumulative survival ([1]; Table 5 group D, DHEA 250 μg single injection at time 0 i.p., NaCl 10% PLE, 48 hrs, 1st exp.): 30% | % cumulative survival ([1]; Table 5 group D, DHEA 250 μg single injection at time 0 i.p., NaCl 10% PLE, 72 hrs, 1st exp.): 30% | % cumulative survival ([1]; Table 5 group D, DHEA 250 μg single injection at time 0 i.p., NaCl 10% PLE, 96 hrs, 1st exp.): 30% | % cumulative survival ([1]; Table 5 group E, DHEA 62.5 μg x4 at time 0, 3, 6 and 24 hours i.p., NaCl 10% PLE, 24 hrs, 1st exp.): 40% | % cumulative survival ([1]; Table 5 group E, DHEA 62.5 μg x4 at time 0, 3, 6 and 24 hours i.p., NaCl 10% PLE, 24 hrs, 2nd exp.): 40% | % cumulative survival ([1]; Table 5 group E, DHEA 62.5 μg x4 at time 0, 3, 6 and 24 hours i.p., NaCl 10% PLE, 48 hrs, 1st exp.): 40% | % cumulative survival ([1]; Table 5 group E, DHEA 62.5 μg x4 at time 0, 3, 6 and 24 hours i.p., NaCl 10% PLE, 48 hrs, 2nd exp.): 40% | % cumulative survival ([1]; Table 5 group E, DHEA 62.5 μg x4 at time 0, 3, 6 and 24 hours i.p., NaCl 10% PLE, 72 hrs, 1st exp.): 40% | % cumulative survival ([1]; Table 5 group E, DHEA 62.5 μg x4 at time 0, 3, 6 and 24 hours i.p., NaCl 10% PLE, 72 hrs, 2nd exp.): 40% | % cumulative survival ([1]; Table 5 group E, DHEA 62.5 μg x4 at time 0, 3, 6 and 24 hours i.p., NaCl 10% PLE, 96 hrs, 1st exp.): 40% | % cumulative survival ([1]; Table 5 group E, DHEA 62.5 μg x4 at time 0, 3, 6 and 24 hours i.p., NaCl 10% PLE, 96 hrs, 2nd exp.): 40% | protection from death (survival) ([1]; at least 1.500 μg/mouse DHEA, 1 hour before LPS+D-Galactosamine): 70% | TNF-α levels after LPS administration (TNF-α): significantly blocked | systemic resistance against lethal viral infections (Semliki Forest virus): regulates the systemic resistance | systemic resistance against lethal viral infections (coxsackievirus B4): regulates the systemic resistance
